Experimental data as given in the supplement of paper PMC10307832.

Key:
Assay in all cases: relative viability (nuclei count vs DMSO), 5 days (fraction); higher = more cells survive
[1] = test system: NCI-H1395
Procedure, shortened: (§1)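 Lung cancer cell lines, seeded in 1536-well plates, were treated the following day by pin tool with a single drug or with five library-drug doses (not always all listed) in √10 steps on top of a fixed anchor-drug dose. Cells were fixed and nuclei stained in one step after 5 days, and nuclei were counted. Relative viability is the nuclei count for treated wells divided by that for vehicle wells, reported as medians of duplicate plates.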

[2] = test system: HARA
Procedure, shortened: as §1

[3] = test system: SK-MES-1
Procedure, shortened: as §1

[4] = test system: NCI-H1944
Procedure, shortened: as §1

[5] = test system: NCI-H2342
Procedure, shortened: as §1

[6] = test system: EPLC-272H
Procedure, shortened: as §1

[7] = test system: NCI-H358
Procedure, shortened: as §1

[8] = test system: NCI-H661
Procedure, shortened: as §1

[9] = test system: COR-L23
Procedure, shortened: as §1

[10] = test system: HCC-827
Procedure, shortened: as §1

[11] = test system: NCI-H1792
Procedure, shortened: as §1

[12] = test system: NCI-H1437
Procedure, shortened: as §1

[13] = test system: NCI-H2023
Procedure, shortened: as §1

[14] = test system: HCC-15
Procedure, shortened: as §1

[15] = test system: NCI-H727
Procedure, shortened: as §1

[16] = test system: HCC-366
Procedure, shortened: as §1

[17] = test system: LCLC-103H
Procedure, shortened: as §1

[18] = test system: UMC-11
Procedure, shortened: as §1

[19] = test system: NCI-H1975
Procedure, shortened: as §1

[20] = test system: HCC-44
Procedure, shortened: as §1

[21] = test system: SK-LU-1
Procedure, shortened: as §1

[22] = test system: NCI-H2085
Procedure, shortened: as §1

[23] = test system: HCC-78
Procedure, shortened: as §1

[24] = test system: COR-L 105
Procedure, shortened: as §1

[25] = test system: NCI-H2405
Procedure, shortened: as §1

Question: With `CCCCCCCCCCCC1=C(O)C(=O)C=C(O)C1=O` [Embelin] + O=C(c1cc(Cc2n[nH]c(=O)c3ccccc23)ccc1F)N1CCN(C(=O)C2CC2)CC1 [Olaparib] (partner 8 µM) as the compound, how does the relative viability ([1]; first compound 0.08 µM) read?
Answer: 0.539

Question: And the relative viability ([1]; first compound 0.8 µM)?
Answer: 0.486

Question: What about the relative viability ([1]; first compound 2.53 µM) of the same compound?
Answer: 0.461

Question: And the relative viability ([1]; first compound 8 µM)?
Answer: 0.443

Question: What about the relative viability ([2]; first compound 0.08 µM) of the same compound?
Answer: 0.85

Question: What about the relative viability ([2]; first compound 0.8 µM) of the same compound?
Answer: 0.734

Question: What about the relative viability ([2]; first compound 2.53 µM) of the same compound?
Answer: 1.12

Question: What about the relative viability ([2]; first compound 8 µM) of the same compound?
Answer: 0.763

Question: And the relative viability ([3]; first compound 0.08 µM)?
Answer: 0.757

Question: What about the relative viability ([3]; first compound 0.8 µM) of the same compound?
Answer: 0.815

Question: What about the relative viability ([3]; first compound 2.53 µM) of the same compound?
Answer: 0.802

Question: And the relative viability ([3]; first compound 8 µM)?
Answer: 0.214

Question: What about the relative viability ([4]; first compound 0.08 µM) of the same compound?
Answer: 0.402

Question: What about the relative viability ([4]; first compound 0.8 µM) of the same compound?
Answer: 0.474

Question: What about the relative viability ([4]; first compound 2.53 µM) of the same compound?
Answer: 0.472

Question: What about the relative viability ([4]; first compound 8 µM) of the same compound?
Answer: 0.425

Question: And the relative viability ([5]; first compound 0.08 µM)?
Answer: 0.482

Question: What about the relative viability ([5]; first compound 0.8 µM) of the same compound?
Answer: 0.432

Question: And the relative viability ([5]; first compound 2.53 µM)?
Answer: 0.459

Question: And the relative viability ([5]; first compound 8 µM)?
Answer: 0.427

Question: What about the relative viability ([6]; first compound 0.08 µM) of the same compound?
Answer: 0.845

Question: And the relative viability ([6]; first compound 0.8 µM)?
Answer: 0.924

Question: What about the relative viability ([6]; first compound 2.53 µM) of the same compound?
Answer: 0.752

Question: What about the relative viability ([6]; first compound 8 µM) of the same compound?
Answer: 1.14

Question: What about the relative viability ([7]; first compound 0.08 µM) of the same compound?
Answer: 0.554

Question: What about the relative viability ([7]; first compound 0.8 µM) of the same compound?
Answer: 0.658

Question: What about the relative viability ([7]; first compound 2.53 µM) of the same compound?
Answer: 0.711

Question: What about the relative viability ([7]; first compound 8 µM) of the same compound?
Answer: 0.623

Question: And the relative viability ([8]; first compound 0.08 µM)?
Answer: 0.771

Question: And the relative viability ([8]; first compound 0.8 µM)?
Answer: 0.75

Question: And the relative viability ([8]; first compound 2.53 µM)?
Answer: 0.737

Question: And the relative viability ([8]; first compound 8 µM)?
Answer: 0.722

Question: What about the relative viability ([9]; first compound 0.08 µM) of the same compound?
Answer: 0.373

Question: What about the relative viability ([9]; first compound 0.8 µM) of the same compound?
Answer: 0.352

Question: What about the relative viability ([9]; first compound 2.53 µM) of the same compound?
Answer: 0.348

Question: What about the relative viability ([9]; first compound 8 µM) of the same compound?
Answer: 0.346

Question: What about the relative viability ([10]; first compound 0.08 µM) of the same compound?
Answer: 0.634

Question: And the relative viability ([10]; first compound 0.8 µM)?
Answer: 0.648

Question: And the relative viability ([10]; first compound 2.53 µM)?
Answer: 0.701

Question: What about the relative viability ([10]; first compound 8 µM) of the same compound?
Answer: 0.715

Question: What about the relative viability ([11]; first compound 0.08 µM) of the same compound?
Answer: 0.507

Question: What about the relative viability ([11]; first compound 0.8 µM) of the same compound?
Answer: 0.42

Question: What about the relative viability ([11]; first compound 2.53 µM) of the same compound?
Answer: 0.547

Question: And the relative viability ([11]; first compound 8 µM)?
Answer: 0.278

Question: And the relative viability ([12]; first compound 0.08 µM)?
Answer: 0.611

Question: What about the relative viability ([12]; first compound 0.8 µM) of the same compound?
Answer: 0.685

Question: What about the relative viability ([12]; first compound 2.53 µM) of the same compound?
Answer: 0.639

Question: What about the relative viability ([12]; first compound 8 µM) of the same compound?
Answer: 0.495

Question: What about the relative viability ([13]; first compound 0.08 µM) of the same compound?
Answer: 0.432

Question: And the relative viability ([13]; first compound 0.8 µM)?
Answer: 0.455

Question: And the relative viability ([13]; first compound 2.53 µM)?
Answer: 0.509

Question: And the relative viability ([13]; first compound 8 µM)?
Answer: 0.229

Question: And the relative viability ([14]; first compound 0.08 µM)?
Answer: 0.689

Question: What about the relative viability ([14]; first compound 0.8 µM) of the same compound?
Answer: 0.727

Question: What about the relative viability ([14]; first compound 2.53 µM) of the same compound?
Answer: 0.823

Question: What about the relative viability ([14]; first compound 8 µM) of the same compound?
Answer: 0.73

Question: And the relative viability ([15]; first compound 0.08 µM)?
Answer: 0.757

Question: What about the relative viability ([15]; first compound 0.8 µM) of the same compound?
Answer: 0.621

Question: And the relative viability ([15]; first compound 2.53 µM)?
Answer: 0.777

Question: What about the relative viability ([15]; first compound 8 µM) of the same compound?
Answer: 0.633

Question: What about the relative viability ([16]; first compound 0.08 µM) of the same compound?
Answer: 0.335

Question: And the relative viability ([16]; first compound 0.8 µM)?
Answer: 0.369

Question: And the relative viability ([16]; first compound 2.53 µM)?
Answer: 0.372

Question: What about the relative viability ([16]; first compound 8 µM) of the same compound?
Answer: 0.423

Question: What about the relative viability ([17]; first compound 0.08 µM) of the same compound?
Answer: 0.762

Question: What about the relative viability ([17]; first compound 0.8 µM) of the same compound?
Answer: 0.796

Question: What about the relative viability ([17]; first compound 2.53 µM) of the same compound?
Answer: 0.802

Question: And the relative viability ([17]; first compound 8 µM)?
Answer: 0.764

Question: And the relative viability ([18]; first compound 0.08 µM)?
Answer: 0.338

Question: What about the relative viability ([18]; first compound 0.8 µM) of the same compound?
Answer: 0.389

Question: And the relative viability ([18]; first compound 2.53 µM)?
Answer: 0.352

Question: What about the relative viability ([18]; first compound 8 µM) of the same compound?
Answer: 0.331

Question: What about the relative viability ([19]; first compound 0.08 µM) of the same compound?
Answer: 0.887

Question: And the relative viability ([19]; first compound 0.8 µM)?
Answer: 0.779

Question: And the relative viability ([19]; first compound 2.53 µM)?
Answer: 0.932

Question: What about the relative viability ([19]; first compound 8 µM) of the same compound?
Answer: 0.904

Question: And the relative viability ([20]; first compound 0.08 µM)?
Answer: 0.989

Question: What about the relative viability ([20]; first compound 0.8 µM) of the same compound?
Answer: 0.959

Question: What about the relative viability ([20]; first compound 2.53 µM) of the same compound?
Answer: 1.01

Question: What about the relative viability ([20]; first compound 8 µM) of the same compound?
Answer: 1

Question: What about the relative viability ([21]; first compound 0.08 µM) of the same compound?
Answer: 0.591

Question: And the relative viability ([21]; first compound 0.8 µM)?
Answer: 0.56

Question: What about the relative viability ([21]; first compound 2.53 µM) of the same compound?
Answer: 0.505

Question: And the relative viability ([21]; first compound 8 µM)?
Answer: 0.433

Question: And the relative viability ([22]; first compound 0.08 µM)?
Answer: 0.727

Question: What about the relative viability ([22]; first compound 0.8 µM) of the same compound?
Answer: 0.73

Question: What about the relative viability ([22]; first compound 2.53 µM) of the same compound?
Answer: 0.842

Question: And the relative viability ([22]; first compound 8 µM)?
Answer: 0.777

Question: And the relative viability ([23]; first compound 0.08 µM)?
Answer: 0.953

Question: What about the relative viability ([23]; first compound 0.8 µM) of the same compound?
Answer: 0.78

Question: And the relative viability ([23]; first compound 2.53 µM)?
Answer: 0.961

Question: And the relative viability ([23]; first compound 8 µM)?
Answer: 0.778

Question: What about the relative viability ([24]; first compound 0.08 µM) of the same compound?
Answer: 0.737

Question: What about the relative viability ([24]; first compound 0.8 µM) of the same compound?
Answer: 0.611

Question: And the relative viability ([24]; first compound 2.53 µM)?
Answer: 0.615

Question: And the relative viability ([24]; first compound 8 µM)?
Answer: 0.573

Question: And the relative viability ([25]; first compound 0.08 µM)?
Answer: 0.872

Question: And the relative viability ([25]; first compound 0.8 µM)?
Answer: 0.842

Question: What about the relative viability ([25]; first compound 2.53 µM) of the same compound?
Answer: 0.909

Question: What about the relative viability ([25]; first compound 8 µM) of the same compound?
Answer: 0.863
